Experimental data from patent US20260240844A1, “INHIBITORS OF CHD1L AND USES THEREOF” (The Regents of the University of Colorado, a body corporate, priority 2023, published 2026).
Read-outs that look alike come from different tables or passages of the source.

Assays:
SW620 Parental cells = experiment: SW620 Parental cell viability, combination with chemotherapy; format: cell-based; conditions: Homo sapiens, SW-620, SW620 cells, read-out: IC50 5-FU
PARP1 = PARP1 (Homo sapiens, UniProt P09874); experiment: PARP1 enzymatic (colorimetric) assay
Sequence of PARP1 (P09874 whole entry): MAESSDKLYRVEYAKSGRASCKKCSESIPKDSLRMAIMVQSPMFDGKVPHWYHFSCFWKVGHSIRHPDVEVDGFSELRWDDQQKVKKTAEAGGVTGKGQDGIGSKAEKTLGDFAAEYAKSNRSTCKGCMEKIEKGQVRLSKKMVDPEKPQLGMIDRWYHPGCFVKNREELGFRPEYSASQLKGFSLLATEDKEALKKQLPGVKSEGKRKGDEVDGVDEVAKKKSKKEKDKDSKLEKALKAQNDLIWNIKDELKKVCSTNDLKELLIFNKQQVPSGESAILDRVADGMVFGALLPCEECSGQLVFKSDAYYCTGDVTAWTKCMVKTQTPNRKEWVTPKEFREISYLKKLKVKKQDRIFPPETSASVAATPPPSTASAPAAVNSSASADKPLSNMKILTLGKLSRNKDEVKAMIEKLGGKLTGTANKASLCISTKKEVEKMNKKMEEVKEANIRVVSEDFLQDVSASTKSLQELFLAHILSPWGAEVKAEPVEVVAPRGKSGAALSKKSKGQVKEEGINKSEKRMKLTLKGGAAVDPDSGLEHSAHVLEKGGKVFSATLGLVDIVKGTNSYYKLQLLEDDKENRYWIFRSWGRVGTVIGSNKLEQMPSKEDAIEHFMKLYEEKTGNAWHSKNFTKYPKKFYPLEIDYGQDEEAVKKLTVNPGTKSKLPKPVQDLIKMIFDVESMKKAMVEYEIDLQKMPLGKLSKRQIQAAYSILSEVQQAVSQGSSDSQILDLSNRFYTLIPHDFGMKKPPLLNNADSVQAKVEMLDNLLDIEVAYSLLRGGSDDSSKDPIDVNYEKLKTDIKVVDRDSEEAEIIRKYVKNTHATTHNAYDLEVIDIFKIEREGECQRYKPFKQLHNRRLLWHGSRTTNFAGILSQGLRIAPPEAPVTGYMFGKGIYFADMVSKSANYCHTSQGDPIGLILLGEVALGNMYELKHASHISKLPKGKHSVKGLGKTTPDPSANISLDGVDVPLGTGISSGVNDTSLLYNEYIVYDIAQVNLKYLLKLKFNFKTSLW
Experimental: First, a 96 well plate was coated with histones. Next, the biotinylated NAD^+ substrate was incubated with an activated DNA template, the inhibitor to test and the PARP1/2 enzyme for 1 h at RT. After that, the sample plate was treated with streptavidin-RP for 30 min at RT, followed by addition of the horseradish peroxidase (HRP) substrate until the colorimetric signal was developed. The EnVision plate reader (PerkinElmer) was used to measure the absorbance at 450 nm and the results were plotted and analyzed using GraphPad Prism.

[1] = tested on: SW620 cells and HCT116 cells; experiment: CHD1L-mediated TCF-transcription and CSC stemness (clonogenic colonies)
[2] = tested on: γ-H2AX in SW620 or SUM149PT cells; experiment: DNA damage (γ-H2AX) immunofluorescence, Example 1; format: cell-based
Text: The percentage of DNA damage for each single agent dose and combination was plotted on a contour map (FIG. 6A). Each shade on the contour map represents a range of % DNA damage where dark orange is 100% and white is 0% DNA damage.

Question: For `O=c1[nH]cc(F)c(=O)[nH]1` [Compound 5-FU, 5-fluorouracil], which IC50 (SW620 Parental cells; Compound 11 0 μM) is on record?
Answer: The IC50 was 20.8 µM.

Question: And the IC50 (SW620 Parental cells; Compound 11 2 μM)?
Answer: Its IC50 is 59.5 µM.

Question: What about the IC50 (SW620 Parental cells; Compound 11 2.25 μM) of the same molecule?
Answer: The IC50 was 54.4 µM.

Question: What about the IC50 (SW620 Parental cells; Compound 11 2.5 μM) of the same molecule?
Answer: Its IC50 is 47.7 µM.

Question: And the IC50 (SW620 Parental cells; Compound 12 2 μM)?
Answer: Its IC50 is 41.4 µM.

Question: And the IC50 (SW620 Parental cells; Compound 12 2.25 μM)?
Answer: The IC50 was 23.9 µM.

Question: And the IC50 (SW620 Parental cells; Compound 12 2.5 μM)?
Answer: Its IC50 is 15.4 µM.

Question: `Cc1cc(Nc2ccc(NC(=O)Cc3cccs3)cc2)nc(N2CCCC2)n1` [Compound 6, N-(4-((6-methyl-2-(pyrrolidin-1-yl)pyrimidin-4-yl)amino)phenyl)-2-(thiophen-2-yl)acetamide] was tested. Which PARP1 enzyme activity (PARP1) did it give?
Answer: Its PARP1 enzyme activity is “does not have any effect on PARP1/2 activity”.

Question: Which results are given for `Cc1cc(Nc2ccc(NC(=O)Cc3cc(Br)cs3)cc2)nc(N2CCCC2)n1` [Compound 6.11, 2-(4-bromothiophen-2-yl)-N-(4-((6-methyl-2-(pyrrolidin-1-yl)pyrimidin-4-yl)amino)phenyl)acetamide]?
Answer: CHD1L-mediated TCF-transcription and CSC stemness [1]: dose dependent inhibition; mean synergy score (Bliss), DNA damage ([2]; combined with 5FU): 23; mean synergy score (Bliss), DNA damage ([2]; combined with SN38): 24; DNA damage (γ-H2AX) compared to vehicle ([2]; single agent): no significant DNA damage
